Measurements published in patent US10421718B2, “EBNA1 inhibitors and their method of use” (priority 2013, dated 2019).

Molecular target: T1, His-EBNA1 (DNA binding domain of EBNA1, amino acids 459-607) (Epstein-Barr virus, UniProt P03211)
T1 construct: made in house; host or cells: E. coli
Assay: Inhibition of 5′-biotin-oPL4624 binding to His-EBNA1 using Alpha Screen technology
Settings: Alpha Screen Activity (IC50, inhibition of 5′-biotin-oPL4624 binding to His-EBNA1), 15 nM His-EBNA1, 0.2 nM bt-oPL4624, 2 hr room temperature
Summary of the method: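 His-tagged EBNA1 DNA-binding domain (aa 459-607, E. coli-expressed) at 15 nM with 0.2 nM biotinylated self-complementary oligo, streptavidin donor and nickel acceptor beads, in 25 mM Tris pH 7.2, 160 mM NaCl, 1 mM MgCl2. Compound 3.2 nM-100 μM final; AlphaScreen read after 2 h at room temperature, one-site dose-response fit.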

T1 sequence (P03211 459-607): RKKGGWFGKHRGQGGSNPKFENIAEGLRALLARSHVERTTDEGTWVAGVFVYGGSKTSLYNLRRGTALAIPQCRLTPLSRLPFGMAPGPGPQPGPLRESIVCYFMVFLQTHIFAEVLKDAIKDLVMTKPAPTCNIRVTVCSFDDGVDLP

Row | Structure (SMILES) | IC50 [µM]
1 | COc1cccc(-c2cn(-c3c(C#Cc4ccccc4)cccc3C(=O)O)nn2)c1 [Entry 110, 2-(4-(3-methoxyphenyl)-1H-1,2,3-triazol-1-yl)-3-(phenylethynyl)benzoic acid] | 10 to 100
2 | O=C(O)c1cccc(C#Cc2ccccc2)c1-n1cc(-c2cccnc2)nn1 [Entry 111, 3-(phenylethynyl)-2-(4-(pyridin-3-yl)-1H-1,2,3-triazol-1-yl)benzoic acid] | 10 to 100
3 | O=C(O)c1cccc(C#Cc2ccccc2)c1-n1cc(CCCO)nn1 [Entry 112, 2-(4-(3-hydroxypropyl)-1H-1,2,3-triazol-1-yl)-3-(phenylethynyl)benzoic acid] | 10 to 100
4 | CN(C)S(=O)(=O)NC(=O)c1cccc(C#Cc2ccccc2)c1-n1cccc1 [Entry 113, N-(Dimethylsulfamoyl)-3-(2-phenylethynyl)-2-(1H-pyrrol-1-yl)benzamide] | 1 to 10
5 | CN(C)S(=O)(=O)NC(=O)c1cccc(C#Cc2ccc(F)cc2)c1-n1cccc1 [Entry 114, N-(Dimethylsulfamoyl)-3-[2-(4-fluorophenyl)ethynyl]-2-(1H-pyrrol-1-yl)benzamide] | 1 to 10
6 | O=C(NS(=O)(=O)N1CCOCC1)c1cccc(C#Cc2ccccc2)c1-n1cccc1 [Entry 115, N-(morpholine-4-sulfonyl)-3-(2-phenylethynyl)-2-(1H-pyrrol-1-yl)benzamide] | 100 to 1000
7 | O=C(NS(=O)(=O)N1CCS(=O)(=O)CC1)c1cccc(C#Cc2ccccc2)c1-n1cccc1 [Entry 116] | 10 to 100
8 | CS(=O)(=O)NC(=O)c1cccc(C#Cc2ccc(F)cc2)c1-n1cccc1 [Entry 117, 3-[2-(4-fluorophenyl)ethynyl]-N-methanesulfonyl-2-(1H-pyrrol-1-yl)benzamide] | 10 to 100
9 | NS(=O)(=O)NC(=O)c1cccc(C#Cc2ccccc2)c1-n1cccc1 [Entry 118, 3-(phenylethynyl)-2-(1H-pyrrol-1-yl)-N-sulfamoylbenzamide] | 10 to 100
10 | COc1ccc(-c2c(C#Cc3ccccc3)cccc2C(=O)O)cc1 [Entry 119, 2-(4-methoxyphenyl)-3-(2-phenylethynyl)benzoic acid] | 1 to 10
11 | COc1cccc(-c2c(C#Cc3ccccc3)cccc2C(=O)O)c1 [Entry 120, 2-(3-methoxyphenyl)-3-(2-phenylethynyl)benzoic acid] | 1 to 10
12 | COc1ccccc1-c1c(C#Cc2ccccc2)cccc1C(=O)O [Entry 121, 2-(2-methoxyphenyl)-3-(2-phenylethynyl)benzoic acid] | 10 to 100
13 | O=C(O)c1cccc(C#Cc2ccccc2)c1-c1cnc2ccccc2c1 [Entry 122, 3-(2-phenylethynyl)-2-(quinolin-3-yl)benzoic acid] | 10 to 100
14 | O=C(O)c1cccc(C#Cc2ccccc2)c1C1CC1 [Entry 123, 2-cyclopropyl-3-(2-phenylethynyl)benzoic acid] | 1 to 10
15 | O=C(O)c1cccc(C#Cc2ccccc2)c1-c1ccccc1 [Entry 124, 2-phenyl-3-(2-phenylethynyl)benzoic acid] | 10 to 100
16 | Cc1ccc(-c2c(C#Cc3ccccc3)cccc2C(=O)O)cc1 [Entry 125, 2-(4-methylphenyl)-3-(2-phenylethynyl)benzoic acid] | 1 to 10
17 | COc1ccc(-c2c(C#Cc3ccccc3)cccc2C(=O)O)cn1 [Entry 126, 2-(6-methoxypyridin-3-yl)-3-(2-phenylethynyl)benzoic acid] | 10 to 100
18 | CN(C)c1ccc(-c2c(C#Cc3ccccc3)cccc2C(=O)O)cn1 [Entry 127, 2-[6-(dimethylamino)pyridin-3-yl]-3-(2-phenylethynyl)benzoic acid] | 10 to 100
19 | O=C(O)c1cccc(C#Cc2ccccc2)c1-c1cccc(CO)c1 [Entry 128, 2-[3-(hydroxymethyl)phenyl]-3-(2-phenylethynyl)benzoic acid] | 10 to 100
20 | O=C(O)c1cccc(C#Cc2ccccc2)c1-c1ccc2cc[nH]c2c1 [Entry 129, 2-(1H-indol-6-yl)-3-(2-phenylethynyl)benzoic acid] | < 1
21 | O=C(O)c1cccc(C#Cc2ccccc2)c1-c1ccc(CO)cc1 [Entry 130, 2-[4-(hydroxymethyl)phenyl]-3-(2-phenylethynyl)benzoic acid] | 10 to 100
22 | O=C(O)c1cccc(C#Cc2ccccc2)c1-c1ccc2occc2c1 [Entry 131, 2-(1-benzofuran-5-yl)-3-(2-phenylethynyl)benzoic acid] | 10 to 100
23 | O=C(O)c1cccc(C#Cc2ccccc2)c1-c1ccc2sccc2c1 [Entry 132, 2-(1-benzothiophen-5-yl)-3-(2-phenylethynyl)benzoic acid] | 10 to 100
24 | Cn1ccc2cc(-c3c(C#Cc4ccccc4)cccc3C(=O)O)ccc21 [Entry 133, 2-(1-methyl-1H-indol-5-yl)-3-(2-phenylethynyl)benzoic acid] | 1 to 10
25 | CS(=O)(=O)Nc1cccc(-c2c(C#Cc3ccccc3)cccc2C(=O)O)c1 [Entry 134, 2-(3-methanesulfonamidophenyl)-3-(2-phenylethynyl)benzoic acid] | 1 to 10

Row | Structure (SMILES) | IC50 [µM]
26 | O=C(O)c1cccc(C#Cc2ccccc2)c1-c1ccc2ccccc2c1 [Entry 135, 2-(naphthalen-2-yl)-3-(2-phenylethynyl)benzoic acid] | 1 to 10
27 | Cn1ccc2ccc(-c3c(C#Cc4ccccc4)cccc3C(=O)O)cc21 [Entry 136, 2-(1-methyl-1H-indol-6-yl)-3-(2-phenylethynyl)benzoic acid] | 1 to 10
28 | O=C(O)c1cccc(C#Cc2ccccc2)c1-c1ccccc1S(=O)(=O)NCCO [Entry 137, 2-{2-[(2-hydroxyethyl)sulfamoyl]phenyl}-3-(2-phenylethynyl)benzoic acid] | 10 to 100
29 | O=C(NC1CC1)c1ccc(-c2c(C#Cc3ccccc3)cccc2C(=O)O)cc1 [Entry 138, 2-[4-(cyclopropylcarbamoyl)phenyl]-3-(2-phenylethynyl)benzoic acid] | 10 to 100
30 | Cn1ncc2ccc(-c3c(C#Cc4ccccc4)cccc3C(=O)O)cc21 [Entry 139, 2-(1-methyl-1H-indazol-6-yl)-3-(2-phenylethynyl)benzoic acid] | 10 to 100
31 | O=C(O)c1cccc(C#Cc2cccc(O)c2)c1-c1cnc2ccccc2c1 [Entry 140, 3-((3-hydroxyphenyl)ethynyl)-2-(quinolin-3-yl)benzoic acid] | 1 to 10
32 | O=C(O)c1cccc(C#CCCCO)c1-c1cnc2ccccc2c1 [Entry 141, 3-(5-hydroxypent-1-ynyl)-2-(quinolin-3-yl)benzoic acid] | 10 to 100
33 | COc1ccc(C#Cc2cccc(C(=O)O)c2-c2cnc3ccccc3c2)cc1 [Entry 142, 3-((4-methoxyphenyl)ethynyl)-2-(quinolin-3-yl)benzoic acid] | 10 to 100
34 | O=C(O)c1cccc(C#Cc2cnc3cnccn23)c1-c1cnc2ccccc2c1 [Entry 143, 3-(imidazo[1,2-a]pyrazin-3-ylethynyl)-2-(quinolin-3-yl)benzoic acid] | 1 to 10
35 | COC/C=C/c1cccc(C(=O)O)c1-n1cccc1 [Entry 144, 3-[(1E)-3-methoxyprop-1-en-1-yl]-2-(1H-pyrrol-1-yl)benzoic acid] | 1 to 10
36 | O=C(O)c1cccc(/C=C/c2ccccc2)c1-n1cccc1 [Entry 145, 3-[(E)-2-phenylethenyl]-2-(1H-pyrrol-1-yl)benzoic acid] | 10 to 100
37 | O=C(O)c1cccc(/C=C/c2ccc(F)cc2)c1-n1cccc1 [Entry 146, 3-[(E)-2-(4-fluorophenyl)ethenyl]-2-(1H-pyrrol-1-yl)benzoic acid] | 10 to 100
38 | O=C(O)c1cccc(CCc2ccccc2)c1-n1cccc1 [Entry 147, 3-(2-phenylethyl)-2-(1H-pyrrol-1-yl)benzoic acid] | 10 to 100
39 | O=C(O)c1cccc(CCc2ccccc2)c1N1CCCC1 [Entry 148, 3-(2-phenylethyl)-2-(pyrrolidin-1-yl)benzoic acid] | 10 to 100
40 | O=C(O)c1cccc(CCc2ccc(F)cc2)c1-n1cccc1 [Entry 149, 3-[2-(4-fluorophenyl)ethyl]-2-(1H-pyrrol-1-yl)benzoic acid] | 10 to 100
41 | O=C(O)c1cccc(C#Cc2ccccc2)c1-c1ccc2nc[nH]c2c1 [Entry 150, 2-(1H-1,3-benzodiazol-6-yl)-3-(2-phenylethynyl)benzoic acid] | 10 to 100
42 | NS(=O)(=O)c1cccc(C#Cc2ccccc2)c1-n1cccc1 [Entry 152, 3-Phenylethynyl-2-pyrrol-1-yl-benzenesulfonamide] | 1 to 10
43 | CC(=O)NS(=O)(=O)c1cccc(C#Cc2ccccc2)c1-n1cccc1 [Entry 153, N-Acetyl-3-phenylethynyl-2-pyrrol-1-yl-benzenesulfonamide] | 10 to 100
44 | Cc1noc(C)c1-c1c(C#Cc2ccccc2)cccc1C(=O)O [Entry 154, 2-(dimethyl-1,2-oxazol-4-yl)-3-(2-phenylethynyl)benzoic acid] | 1 to 10
45 | O=C(O)c1cccc(C#Cc2ccccc2)c1OCc1ccccc1 [Entry 155, 2-(benzyloxy)-3-(2-phenylethynyl)benzoic acid] | 10 to 100
46 | COC(=O)c1c[nH]c2cc(-c3c(C#Cc4ccccc4)cccc3C(=O)O)ccc12 [Entry 156, 2-[3-(methoxycarbonyl)-1H-indol-6-yl]-3-(2-phenylethynyl)benzoic acid] | 1 to 10
47 | O=C(O)c1cccc(C#CCNCc2ccccc2)c1-c1ccccc1 [Entry 157, 3-[3-(benzylamino)prop-1-yn-1-yl]-2-phenylbenzoic acid] | 10 to 100
48 | O=C(O)c1cccc(C#CCNCCCn2ccnc2)c1-c1ccccc1 [Entry 158, 3-(3-{[3-(1H-imidazol-1-yl)propyl]amino}prop-1-yn-1-yl)-2-phenylbenzoic acid] | 10 to 100
49 | O=C(O)c1cccc(C#CCN2CCN(c3ccccc3)CC2)c1-c1ccccc1 [Entry 159, 2-phenyl-3-[3-(4-phenylpiperazin-1-yl)prop-1-yn-1-yl]benzoic acid] | 10 to 100
